Here are results for 1 compound from patent US20070225334A1, “Methods for treating cognitive and other disorders” (Wyeth, priority 2006, published 2007).

For data set [1], the target named is T1, 5-HT2C receptor (Homo sapiens, UniProt P28335).
T1 sequence (P28335 33-458): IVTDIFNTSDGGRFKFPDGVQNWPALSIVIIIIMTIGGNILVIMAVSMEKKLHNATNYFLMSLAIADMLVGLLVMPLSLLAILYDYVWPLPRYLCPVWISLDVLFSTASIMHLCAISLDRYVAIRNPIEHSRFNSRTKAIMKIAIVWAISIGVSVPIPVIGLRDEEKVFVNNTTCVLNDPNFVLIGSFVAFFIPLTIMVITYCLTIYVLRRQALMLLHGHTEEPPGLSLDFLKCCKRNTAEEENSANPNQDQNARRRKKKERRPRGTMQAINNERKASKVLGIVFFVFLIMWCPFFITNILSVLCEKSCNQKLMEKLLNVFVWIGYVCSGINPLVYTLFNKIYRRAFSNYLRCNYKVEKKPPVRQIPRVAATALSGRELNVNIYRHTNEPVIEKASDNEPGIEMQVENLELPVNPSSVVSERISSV
The data set can be described thus: 5-HT2C receptor agonist function. Type of data set: biochemical.

In data set [2] the test system is acetylcholine in medial prefrontal cortex. The data set can be described thus: In vivo microdialysis, acetylcholine in medial prefrontal cortex. Conditions: 1.7 mg/kg s.c. Details: species or system Sprague-Dawley rat. The procedure:
Animals: Adult male Sprague-Dawley rats (Charles River, Wilmington, Mass.) weighing 280-350 g at the time of surgery were used for all microdialysis experiments. Adult male Long-Evans rats (Charles River, Wilmington, Mass.) weighing 180-220 g were used for NOR studies. Rats were housed individually for recognition memory studies. All animals had free access to food and water and were group housed in the AAALAC-accredited facility that was maintained on a 12 h light dark cycle (lights on at 0600 h) for at least 1 week prior to surgery or behavioral testing. All in vivo studies were performed in accordance to the ‘Guide for the Care and Use of Laboratory Animals’ as adopted and promulgated by the National Institutes of Health (Pub. 85-23, 1985). […]
Analysis of Acetylcholine Dialysate levels of acetylcholine were determined using LC/MS/MS. […]
Acetylcholine data were quantified using peak area against an internal standard and acquired using Masslynx software (Micromass, Beverly, Mass., USA). The mean of the concentration of baseline samples was calculated and denoted as 0%. All sample values were expressed as a percent change from this pre-injection mean baseline value (% change from baseline). Neurochemical data, excluding pre-injection values, were analyzed by a two-way analysis of variance (ANOVA) with repeated measures (time). […]

Data set [3] has as its target T1, 5-HT2C receptor. The data set can be described thus: 5-HT2C receptor affinity. Format: binding.
Data set [4] relates to normal eating and drinking behavior. The data set is described as follows: Modified procedure for normal feeding and drinking behavior (120 pellets at session start). Format: in vivo, Sprague-Dawley rat. The settings on record: 1 mg/kg. The procedure: In order to determine if Compound 1 would affect normal eating and drinking behavior, Compound 1 or vehicle was tested under modified conditions. Under these modified conditions, 120 food pellets were placed into the food trough at the beginning of the session and no further food pellets were dispensed. At the end of the test session, the volume of water and the number of food pellets consumed by each rat were measured as described earlier.
(§1) Water consumption was calculated and expressed as percent (%) of vehicle control intake. Results were analyzed using a one-way ANOVA with least significant difference (LSD) post-hoc test. […] Where appropriate, ED50 values (dose that decreases adjunctive water intake to 50% of vehicle values) were calculated using a logistic dose response analysis.

Data set [5] concerns extracellular glutamate levels in the rat mPFC. The data set is described as follows: In vivo microdialysis, extracellular glutamate in mPFC. Details: species or system Sprague-Dawley rat. Conditions: 1.7 mg/kg s.c., acute, F(1,15)=4.76, P=0.0454 vs vehicle. The procedure:
Animals: Adult male Sprague-Dawley rats (Charles River, Wilmington, Mass.) weighing 280-350 g at the time of surgery were used for all microdialysis experiments. Adult male Long-Evans rats (Charles River, Wilmington, Mass.) weighing 180-220 g were used for NOR studies. Rats were housed individually for recognition memory studies. All animals had free access to food and water and were group housed in the AAALAC-accredited facility that was maintained on a 12 h light dark cycle (lights on at 0600 h) for at least 1 week prior to surgery or behavioral testing. All in vivo studies were performed in accordance to the ‘Guide for the Care and Use of Laboratory Animals’ as adopted and promulgated by the National Institutes of Health (Pub. 85-23, 1985).
Stereotaxic Surgery Following induction of anesthesia with 3% halothane (Fluothane; Zeneca, Cheshire, UK), animals were secured in a stereotaxic frame with ear and incisor bars (David Kopf, Tujunga, Calif.). Anesthesia was maintained by continuous administration of halothane (1-2%) while a microdialysis guide cannula (CMA/12, CMA Microdialysis, Stockholm, Sweden) was implanted above the dorsal hippocampus (AP: −4.3 mm ML: −2.6 mm DV: −2.1 mm) or the medial prefrontal cortex (AP: 3.2 mm ML: −0.6 mm DV: −3.8 mm). […]
Dialysate (10 μL) was collected and analyzed for extracellular glutamate concentrations. […]

Data set [6] relates to schedule-induced polydipsia. The data set is described as follows: Schedule-induced polydipsia model of obsessive-compulsive disorder (adjunctive drinking). Type of data set: in vivo, Sprague-Dawley rat. The settings on record: for reduction in adjunctive drinking behavior: relative to vehicle.
Excerpt: In this model, a food pellet is delivered once per minute for a two-hour period. A water bottle is available in the test chamber. […] This excessive manifestation of a normal behavior (drinking) provides face validity to the model. […] Most importantly, clinically effective drugs for the treatment of obsessive-compulsive disorder decrease adjunctive drinking.
Male Sprague-Dawley rats weighing 300-400 grams were individually housed in an AALAC-accredited facility that was maintained on a 12-h light dark cycle (lights on at 0600 h) with freely available water. All in vivo studies were performed in accordance to the Guide for the Care and Use of Laboratory Animals as adopted and promulgated by the National Institutes of Health (Pub. 85-23, 1985). Rats were maintained at approximately 85% of their free-feeding body weights by food presented during the session and by post-session feeding.
Procedure Experimental sessions were conducted in a standard operant conditioning chamber placed inside a ventilated sound-attenuating shell that was equipped with white noise to mask extraneous sounds (Med Associates, Georgia, Vt.). A food trough was on the front panel of the chamber and a water bottle was mounted to the side panel. Experimental sessions were 120 minutes in duration and were conducted five days per week (Monday through Friday). Test sessions occurred generally on Tuesdays and Fridays, with the remaining days serving as control days. For each session, one food pellet (Bioserv, 45 mg precision dustless pellet) was dispensed into the food trough each minute for the duration of the session, for a total of 120 pellets being delivered. This schedule of food presentation elicits an abnormal adjunctive drinking behavior in rats such that they consume and exaggerated volume of water, approximately 5-10 fold larger than under normal conditions. Compound 1 or vehicle was administered immediately prior to the start of the experimental session. Each dose of Compound 1 was tested on a separate day, with the appropriate control sessions being conducted prior to each test. At the end of the test session, the volume of water and the number of food pellets that each rat consumed were measured.
as §1

Each structure is given as a SMILES string.

As a reminder, the EC50 is the concentration at which the effect is half-maximal. Higher therefore signals weaker potency. As a reminder, the Ki is the dissociation constant of the complex between target and ligand, obtained from inhibition or displacement. Broadly, the ED50 is the dose that gives a 50% effect, or the effect in half of the subjects.

In the case of `NC[C@H]1Cc2cc(F)cc(-c3c(Cl)cccc3Cl)c2O1` (stereo in doubt) [Compound 1, (7-(2,6-dichlorophenyl)-5-fluoro-2,3-dihydrobenzofuran-2-yl)methanamine], in data set [1], the midpoint of the response, the EC50, lay at 0.4 nM and the “agonist character at the 5-HT2C receptor” value is “potent full agonist”. Also, the “maximal increase in acetylcholine with respect to baseline” value in data set [2] is listed as 48%. Also, the Ki in data set [3] was determined as 0.37 nM. Further, the “decrease in water consumption relative to vehicle controls” value in data set [4] (modified procedure (normal drinking)) is reported as 26%. Also, the “rats failing to eat all food pellets presented” value in data set [4] (modified procedure (normal feeding)) is “two of the six rats tested failed to eat all of the food pellets presented”. Also, the extracellular glutamate levels in data set [5] came out at 132%. In data set [6] (0.3 mg/kg i.p., p=0.003), the “reduction in adjunctive drinking behavior” value amounted to 45%. Also, the “rats not eating all food pellets presented” value in data set [6] (1 mg/kg i.p., schedule-induced polydipsia session) is “one of the six rats did not eat all of the food pellets presented”. For the same compound, the “reduction in adjunctive drinking behavior” value in data set [6] (1 mg/kg i.p., p<0.0001) is 81%. In addition, in data set [6] (0.1-1 mg/kg, i.p., acute, F(3,20)=16.91, p<0.0001), the “effect on adjunctive drinking behavior” value is “dose-dependent decrease”. Further, the 50% effective dose (ED50) in data set [6] (Rattus norvegicus, ip, 95% CI: 0.22-0.57 mg/kg, read-out: ED50 (dose that decreases adjunctive water intake to 50% of vehicle values)) was 0.36 mg/kg.
